{"source": "patent US20210393570A1", "about": "“THERAPEUTICAL COMPOSITIONS FOR USE IN THE TREATMENT OF NON-MALIGNANT CONDITIONS ASSOCIATED WITH PHOSPHATIDYLINOSITOL-3-KINASE ACTIVATION: OVERGROWTH SPECTRUM, CUTANEOUS CAPILLARY MALFORMATIONS AND SEBORRHEIC KERATOSES” (UNIVERSITÉ DE BOURGOGNE, priority 2017, published 2021)", "key": {"[1]": {"tested_on": "fibroblasts from patients", "assay": "Cell viability measured by XTT labeling", "type": "cell-based, human", "conditions": "48 h treatment, increasing doses; compared with PI3K or mTOR inhibitors; FIG. 3A, 3B", "protocol": "(§1) FIG. 3 Cell viability measured by XTT labeling after 48 h of treatment by 10 μM LY294002 or by increasing doses of Triptolide (A), by 4 ng/ml Rapamycin (B) or increasing doses of Kribb11. For each experiment: control 1 (white bar), control 2 (hatched bar), patient B (grey bar), patient A (black bar). n=3. O.D.=optical density. (C) Number of cells after 48 h treatment for patient A. (D) Cell proliferation measured by incorporation of BrdU. O.D.=optical density. (E) Fibroblasts apoptosis of patients and healthy donors measured by a cell death detection ELISA kit, after 24 h treatment with 100 ng/ml rapamycin, 10 μM LY294002, 3 μM Kribb11 or 10 nM Triptolide. 1 μM of staurosporine was used as an inducer of apoptosis and as positive control of the experiment, n=3. O.D.=optical density. *p<0.05, **p<0.01, ***p<0.005."}, "patient A fibroblasts [2]": {"tested_on": "patient A fibroblasts", "assay": "Number of cells after 48 h treatment", "type": "cell-based, human", "conditions": "compared with PI3K or mTOR inhibitors, FIG. 3C", "protocol": "as §1"}, "[3]": {"tested_on": "fibroblasts from patients", "assay": "Cell proliferation measured by incorporation of BrdU", "type": "cell-based, human", "conditions": "FIG. 3D", "protocol": "as §1"}, "patient A fibroblasts [4]": {"tested_on": "patient A fibroblasts", "assay": "Quantitative PCR of 74 genes known to be regulated by HSF1", "type": "cell-based, human", "conditions": "two independent experiments, FIG. 2D", "source_text": "(D) Quantitative PCR analysis of the expression of 74 genes belonging to a cancer-related gene signature in patient A fibroblasts after treatment with LY294002. A code with different patterns is used to illustrate the intensity of the increase (gradient of grey) or decrease (shading pattern) of gene expression compared to untreated cells;\nThe Inventors have further investigated whether the PI3K/AKT/mTOR pathway is directly responsible for the activation of HSF1 in the fibroblasts of patients. The induction of PI3K/AKT activating pathway by adding insulin to normal fibroblasts is well known. […] To test this hypothesis, the expression of 74 known genes to be regulated by HSF1 have been determined after treatment with the PI3K inhibitor (FIG. 2D). In two independent experiments, the expression of 47 genes is inhibited while the expression of 11 genes is increased. The results are variable for 12 other genes (increase and decrease). […] Thus, a large part of a HSF1-dependent gene signature can be inhibited by the blocking of PI3K and thus confirms the link between these two pathways in the syndrome of segmental hypertrophy PIK3CA dependent."}, "[5]": {"tested_on": "fibroblasts of patients and healthy donors", "assay": "Fibroblast apoptosis measured by cell death detection ELISA kit", "type": "cell-based", "conditions": "24 h treatment; 3 μM Kribb11 or 10 nM Triptolide; FIG. 3E", "protocol": "as §1"}, "HSF1": {"tested_on": "HSF1", "assay": "Immunoblotting of HSF1 phosphorylation in fibroblasts", "type": "cell-based, human", "conditions": "insulin added to normal fibroblasts; FIG. 2A"}, "AKT": {"tested_on": "AKT", "assay": "Immunoblotting of AKT phosphorylation in fibroblasts", "type": "cell-based, human", "conditions": "treatment with insulin; FIG. 2A"}}, "data": [{"compound": "CNc1ccc([N+](=O)[O-])c(Nc2ccc3[nH]ncc3c2)n1", "note": "[Kribb11]", "values": [{"measurement": "cell growth (cell viability, XTT)", "setting": "[1]", "value": "reduction in cell growth"}, {"measurement": "number of total cells", "setting": "patient A fibroblasts [2]", "value": "reduction"}, {"measurement": "increase in the % of cells entering the S phase", "setting": "[3]", "value": "completely blocked"}]}, {"compound": "O=c1cc(N2CCOCC2)oc2c(-c3ccccc3)cccc12", "note": "[LY294002]", "values": [{"measurement": "number of HSF1-regulated genes whose expression is increased", "setting": "patient A fibroblasts [4]", "value": 11, "unit": "genes"}, {"measurement": "number of HSF1-regulated genes whose expression is inhibited", "setting": "patient A fibroblasts [4]", "value": 47, "unit": "genes"}, {"measurement": "number of HSF1-regulated genes with variable results (increase and decrease)", "setting": "patient A fibroblasts [4]", "value": 12, "unit": "genes"}]}, {"compound": "CC(C)[C@]12O[C@H]1[C@@H]1O[C@]13[C@]1(O[C@H]1C[C@H]1C4=C(CC[C@@]13C)C(=O)OC4)[C@@H]2O", "note": "[Triptolide]", "values": [{"measurement": "cell growth (cell viability, XTT)", "setting": "[1]", "value": "reduction in cell growth"}, {"measurement": "number of total cells", "setting": "patient A fibroblasts [2]", "value": "reduction"}, {"measurement": "cell mortality (apoptosis)", "setting": "[5]", "value": "not associated with an increase in cell mortality"}]}, {"compound": "insulin", "values": [{"measurement": "phosphorylation of HSF1", "setting": "HSF1", "value": "induction of the phosphorylation of HSF1"}, {"measurement": "phosphorylation of AKT", "setting": "AKT", "value": "induces the phosphorylation of AKT"}]}]}
